Experimental data as given in patent US20250255867A1 (Kadmon Corporation, LLC, priority 2022, published 2025).

Conditions: Cohort 1 200 mg QD

CC(C)NC(=O)COc1cccc(-c2nc(Nc3ccc4[nH]ncc4c3)c3ccccc3n2)c1 [Belumosudil, 2-{3-[4-(1H-indazol-5-ylamino)-2-quinazolinyl]phenoxy}-N-(propan-2-yl) acetamide]
Hypogonadism: # Events: 1
Hypogonadism: Affected/At Risk: 1/17
Hypogonadism: Affected/At Risk (%): (5.88%)
Hypokalaemia: # Events: 1
Hypokalaemia: Affected/At Risk: 1/17
Hypokalaemia: Affected/At Risk (%): (5.88%)
Hypomagnesaemia: # Events: 1
Hypomagnesaemia: Affected/At Risk: 1/17
Hypomagnesaemia: Affected/At Risk (%): (5.88%)
Hyponatraemia: # Events: 1
Hyponatraemia: Affected/At Risk: 1/17
Hyponatraemia: Affected/At Risk (%): (5.88%)
Hypophosphataemia: # Events: 1
Hypophosphataemia: Affected/At Risk: 1/17
Hypophosphataemia: Affected/At Risk (%): (5.88%)
Hypothermia: # Events: 0
Hypothermia: Affected/At Risk: 0/17
Hypothermia: Affected/At Risk (%): (0%)
Hypothyroidism: # Events: 2
Hypothyroidism: Affected/At Risk: 1/17
Hypothyroidism: Affected/At Risk (%): (5.88%)
Hypoxia: # Events: 1
Hypoxia: Affected/At Risk: 1/17
Hypoxia: Affected/At Risk (%): (5.88%)
Impaired healing: # Events: 1
Impaired healing: Affected/At Risk: 1/17
Impaired healing: Affected/At Risk (%): (5.88%)
Influenza like illness: # Events: 1
Influenza like illness: Affected/At Risk: 1/17
Influenza like illness: Affected/At Risk (%): (5.88%)
Influenza: # Events: 2
Influenza: Affected/At Risk: 2/17
Influenza: Affected/At Risk (%): (11.76%)
Insomnia: # Events: 0
Insomnia: Affected/At Risk: 0/17
Insomnia: Affected/At Risk (%): (0%)
Irritability: # Events: 1
Irritability: Affected/At Risk: 1/17
Irritability: Affected/At Risk (%): (5.88%)
Joint range of motion decreased: # Events: 0
Joint range of motion decreased: Affected/At Risk: 0/17
Joint range of motion decreased: Affected/At Risk (%): (0%)
Lacrimation increased: # Events: 0
Lacrimation increased: Affected/At Risk: 0/17
Lacrimation increased: Affected/At Risk (%): (0%)
Leukaemia recurrent: # Events: 1
Leukaemia recurrent: Affected/At Risk: 1/17
Leukaemia recurrent: Affected/At Risk (%): (5.88%)
Leukocytosis: # Events: 1
Leukocytosis: Affected/At Risk: 1/17
Leukocytosis: Affected/At Risk (%): (5.88%)
Ligament sprain: # Events: 1
Ligament sprain: Affected/At Risk: 1/17
Ligament sprain: Affected/At Risk (%): (5.88%)
Limb injury: # Events: 1
Limb injury: Affected/At Risk: 1/17
Limb injury: Affected/At Risk (%): (5.88%)
Macular degeneration: # Events: 0
Macular degeneration: Affected/At Risk: 0/17
Macular degeneration: Affected/At Risk (%): (0%)
Migraine: # Events: 0
Migraine: Affected/At Risk: 0/17
Migraine: Affected/At Risk (%): (0%)
Muscle spasms: # Events: 1
Muscle spasms: Affected/At Risk: 1/17
Muscle spasms: Affected/At Risk (%): (5.88%)
Muscle spasticity: # Events: 1
Muscle spasticity: Affected/At Risk: 1/17
Muscle spasticity: Affected/At Risk (%): (5.88%)
Muscular weakness: # Events: 6
Muscular weakness: Affected/At Risk: 4/17
Muscular weakness: Affected/At Risk (%): (23.53%)
Musculoskeletal chest pain: # Events: 1
Musculoskeletal chest pain: Affected/At Risk: 1/17
Musculoskeletal chest pain: Affected/At Risk (%): (5.88%)
Myalgia: # Events: 2
Myalgia: Affected/At Risk: 1/17
Myalgia: Affected/At Risk (%): (5.88%)
Nail disorder: # Events: 1
Nail disorder: Affected/At Risk: 1/17
Nail disorder: Affected/At Risk (%): (5.88%)
Nasal congestion: # Events: 3
Nasal congestion: Affected/At Risk: 3/17
Nasal congestion: Affected/At Risk (%): (17.65%)
Nausea: # Events: 10
Nausea: Affected/At Risk: 6/17
Nausea: Affected/At Risk (%): (35.29%)
Neck pain: # Events: 1
Neck pain: Affected/At Risk: 1/17
Neck pain: Affected/At Risk (%): (5.88%)
Nephrotic syndrome: # Events: 1
Nephrotic syndrome: Affected/At Risk: 1/17
Nephrotic syndrome: Affected/At Risk (%): (5.88%)
Neuropathy peripheral: # Events: 0
Neuropathy peripheral: Affected/At Risk: 0/17
Neuropathy peripheral: Affected/At Risk (%): (0%)
Neutrophil count decreased: # Events: 1
Neutrophil count decreased: Affected/At Risk: 1/17
Neutrophil count decreased: Affected/At Risk (%): (5.88%)
Nocturia: # Events: 1
Nocturia: Affected/At Risk: 1/17
Nocturia: Affected/At Risk (%): (5.88%)
Non-cardiac chest pain: # Events: 0
Non-cardiac chest pain: Affected/At Risk: 0/17
Non-cardiac chest pain: Affected/At Risk (%): (0%)
Obesity: # Events: 2
Obesity: Affected/At Risk: 2/17
Obesity: Affected/At Risk (%): (11.76%)
Oedema peripheral: # Events: 3
Oedema peripheral: Affected/At Risk: 3/17
Oedema peripheral: Affected/At Risk (%): (17.65%)
Oedema: # Events: 0
Oedema: Affected/At Risk: 0/17
Oedema: Affected/At Risk (%): (0%)
Oesophageal ulcer: # Events: 0
Oesophageal ulcer: Affected/At Risk: 0/17
Oesophageal ulcer: Affected/At Risk (%): (0%)
Oral candidiasis: # Events: 3
Oral candidiasis: Affected/At Risk: 2/17
Oral candidiasis: Affected/At Risk (%): (11.76%)
Oropharyngeal pain: # Events: 1
Oropharyngeal pain: Affected/At Risk: 1/17
Oropharyngeal pain: Affected/At Risk (%): (5.88%)
Orthopnoea: # Events: 1
Orthopnoea: Affected/At Risk: 1/17
Orthopnoea: Affected/At Risk (%): (5.88%)
Osteonecrosis: # Events: 1
Osteonecrosis: Affected/At Risk: 1/17
Osteonecrosis: Affected/At Risk (%): (5.88%)
Osteopenia: # Events: 0
Osteopenia: Affected/At Risk: 0/17
Osteopenia: Affected/At Risk (%): (0%)
Osteoporosis: # Events: 0
Osteoporosis: Affected/At Risk: 0/17
Osteoporosis: Affected/At Risk (%): (0%)
Overdose: # Events: 1
Overdose: Affected/At Risk: 1/17
Overdose: Affected/At Risk (%): (5.88%)
Pain in extremity: # Events: 2
Pain in extremity: Affected/At Risk: 2/17
Pain in extremity: Affected/At Risk (%): (11.76%)
Pain: # Events: 3
Pain: Affected/At Risk: 3/17
Pain: Affected/At Risk (%): (17.65%)
Palpitations: # Events: 1
Palpitations: Affected/At Risk: 1/17
Palpitations: Affected/At Risk (%): (5.88%)
Paraesthesia: # Events: 0
Paraesthesia: Affected/At Risk: 0/17
Paraesthesia: Affected/At Risk (%): (0%)
Participants with TEAE: 17 (100%) participants
Participants with TESAE: 5 (29%) participants
Pericardial effusion: # Events: 1
Pericardial effusion: Affected/At Risk: 1/17
Pericardial effusion: Affected/At Risk (%): (5.88%)
Peripheral coldness: # Events: 1
Peripheral coldness: Affected/At Risk: 1/17
Peripheral coldness: Affected/At Risk (%): (5.88%)
Peripheral sensory neuropathy: # Events: 0
Peripheral sensory neuropathy: Affected/At Risk: 0/17
Peripheral sensory neuropathy: Affected/At Risk (%): (0%)
Phlebitis: # Events: 0
Phlebitis: Affected/At Risk: 0/17
Phlebitis: Affected/At Risk (%): (0%)
Photophobia: # Events: 0
Photophobia: Affected/At Risk: 0/17
Photophobia: Affected/At Risk (%): (0%)
Platelet count decreased: # Events: 3
Platelet count decreased: Affected/At Risk: 1/17
Platelet count decreased: Affected/At Risk (%): (5.88%)
Pleural effusion: # Events: 1
Pleural effusion: Affected/At Risk: 1/17
Pleural effusion: Affected/At Risk (%): (5.88%)
Pneumonia respiratory syncytial viral: # Events: 0
Pneumonia respiratory syncytial viral: Affected/At Risk: 0/17
Pneumonia respiratory syncytial viral: Affected/At Risk (%): (0%)
Pneumonia: # Events: 2
Pneumonia: Affected/At Risk: 1/17
Pneumonia: Affected/At Risk (%): (5.88%)
Pollakiuria: # Events: 1
Pollakiuria: Affected/At Risk: 1/17
Pollakiuria: Affected/At Risk (%): (5.88%)
Presyncope: # Events: 0
Presyncope: Affected/At Risk: 0/17
Presyncope: Affected/At Risk (%): (0%)
Productive cough: # Events: 2
Productive cough: Affected/At Risk: 2/17
Productive cough: Affected/At Risk (%): (11.76%)
Proteinuria: # Events: 2
Proteinuria: Affected/At Risk: 2/17
Proteinuria: Affected/At Risk (%): (11.76%)
Pruritus: # Events: 1
Pruritus: Affected/At Risk: 1/17
Pruritus: Affected/At Risk (%): (5.88%)
Pseudomonas infection: # Events: 1
Pseudomonas infection: Affected/At Risk: 1/17
Pseudomonas infection: Affected/At Risk (%): (5.88%)
Pulmonary mass: # Events: 0
Pulmonary mass: Affected/At Risk: 0/17
Pulmonary mass: Affected/At Risk (%): (0%)
Pyrexia: # Events: 3
Pyrexia: Affected/At Risk: 1/17
Pyrexia: Affected/At Risk (%): (5.88%)
Rash erythematous: # Events: 0
Rash erythematous: Affected/At Risk: 0/17
Rash erythematous: Affected/At Risk (%): (0%)
Rash maculo-papular: # Events: 2
Rash maculo-papular: Affected/At Risk: 2/17
Rash maculo-papular: Affected/At Risk (%): (11.76%)
Rash pustular: # Events: 0
Rash pustular: Affected/At Risk: 0/17
Rash pustular: Affected/At Risk (%): (0%)
Rash: # Events: 2
Rash: Affected/At Risk: 1/17
Rash: Affected/At Risk (%): (5.88%)
Red blood cells urine positive: # Events: 0
Red blood cells urine positive: Affected/At Risk: 0/17
Red blood cells urine positive: Affected/At Risk (%): (0%)
Renal failure: # Events: 0
Renal failure: Affected/At Risk: 0/17
Renal failure: Affected/At Risk (%): (0%)
Respiratory syncytial virus infection: # Events: 0
Respiratory syncytial virus infection: Affected/At Risk: 0/17
Respiratory syncytial virus infection: Affected/At Risk (%): (0%)
Respiratory tract infection fungal: # Events: 1
Respiratory tract infection fungal: Affected/At Risk: 1/17
Respiratory tract infection fungal: Affected/At Risk (%): (5.88%)
Respiratory tract infection: # Events: 1
Respiratory tract infection: Affected/At Risk: 1/17
Respiratory tract infection: Affected/At Risk (%): (5.88%)
Restless legs syndrome: # Events: 0
Restless legs syndrome: Affected/At Risk: 0/17
Restless legs syndrome: Affected/At Risk (%): (0%)
Rosacea: # Events: 0
Rosacea: Affected/At Risk: 0/17
Rosacea: Affected/At Risk (%): (0%)
SAE Abdominal wall haematoma, # events: 0
SAE Abdominal wall haematoma, affected/at risk: 0/17
SAE Acute kidney injury, # events: 0
SAE Acute kidney injury, affected/at risk: 0/17
SAE Acute lymphocytic leukaemia recurrent, # events: 0
SAE Acute lymphocytic leukaemia recurrent, affected/at risk: 0/17
SAE Acute respiratory failure, # events: 1
SAE Acute respiratory failure, affected/at risk: 1/17
SAE Anaphylactic reaction, # events: 1
SAE Anaphylactic reaction, affected/at risk: 1/17
SAE Bacteraemia, # events: 0
SAE Bacteraemia, affected/at risk: 0/17
SAE Cardiac arrest, # events: 0
SAE Cardiac arrest, affected/at risk: 0/17
SAE Cellulitis, # events: 0
SAE Cellulitis, affected/at risk: 0/17
SAE Chronic graft versus host disease in skin, # events: 0
SAE Chronic graft versus host disease in skin, affected/at risk: 0/17
SAE Citrobacter infection, # events: 0
SAE Citrobacter infection, affected/at risk: 0/17
SAE Dyspnoea, # events: 0
SAE Dyspnoea, affected/at risk: 0/17
SAE Embolism, # events: 0
SAE Embolism, affected/at risk: 0/17
SAE Febrile neutropenia, # events: 0
SAE Febrile neutropenia, affected/at risk: 0/17
SAE Graft versus host disease in lung, # events: 0
SAE Graft versus host disease in lung, affected/at risk: 0/17
SAE Hypoxia, # events: 0
SAE Hypoxia, affected/at risk: 0/17
SAE Influenza A virus test positive, # events: 1
SAE Influenza A virus test positive, affected/at risk: 1/17
SAE Influenza like illness, # events: 0
SAE Influenza like illness, affected/at risk: 0/17
SAE Lacunar infarction, # events: 0
SAE Lacunar infarction, affected/at risk: 0/17
SAE Leukaemia recurrent, # events: 0
SAE Leukaemia recurrent, affected/at risk: 0/17
